How the values were obtained:
MMP1 expression by SFs = assay: 'MMP assay': MMP1 expression by 'complex trigger' activated synovial fibroblasts (MMP1 ELISA); type: cell-based, human; conditions: Homo sapiens, Fibroblast, RASFs, 48 hrs
Procedure: A 384-well format ELISA for measurement of MMP1 is developed. Various primary antibodies are tested, as well as various ELISA protocols. The following protocol is developed and validated to measure MMP1 levels in SF supernatant in 384 well plates: white Lumitrac 600 384 well plates (Greiner) are coated with 2 μg/mL anti-MMP1 antibody MAB1346 (Chemicon). The antibody is diluted in buffer 40 (1.21 g Tris base (Sigma), 0.58 g NaCl (Calbiochem) and 5 ml 10% NaN3 (Sigma) in 1 L milliQ water and adjusted to pH 8.5). After overnight incubation at 4° C., plates are washed with PBS (80 g NaCl, 2 g KCl (Sigma), 11.5 g Na2HPO4.7H2O and 2 g KH2PO4 in 10 L milliQ; pH 7.4) and blocked with 100 μL/well Casein buffer (2% Casein (VWR International) in PBS). Next day, casein buffer is removed from ELISA plates and replaced by 50 μL/well EC buffer (4 g casein, 2.13 g Na2HPO4 (Sigma), 2 g bovine albumin (Sigma), 0.69 g NaH2PO4.H2O (Sigma), 0.5 g CHAPS (Roche), 23.3 g NaCl, 4 mL 0.5 M EDTA pH 8 (Invitrogen), 5 mL 10% NaN3 in 1 L milliQ and adjusted to pH 7.0). 0.25 mM DTT (Sigma) is added to the thawed samples plates. After removal of the EC buffer, 20 μL of sample is transferred to the ELISA plates. After overnight incubation at 4° C. plates are washed twice with PBS and once with PBST (PBS with 0.05% Tween-20 (Sigma)) and incubated with 35 μL/well biotinylated anti-MMP1 antibody solution (R&D). This secondary antibody is diluted in buffer C (0.82 g NaH2PO4.H2O, 4.82 g Na2HPO4, 46.6 g NaCl, 20 g bovine albumin and 4 mL 0.5M EDTA pH 8 in 2 L milliQ and adjusted to pH 7.0) at a concentration of 5 μg/mL. After 2 h of incubation at RT, plates are washed as described above and incubated with 50 μL/well streptavidin-HRP conjugate (Biosource). Streptavidin-HRP conjugate is diluted in buffer C at a concentration of 0.25 μg/mL. After 45 min, plates are washed as described above and incubated for 5 min with 50 μL/well BM Chem ELISA Substrate (Roche). Readout is performed on the Luminoscan Ascent Luminometer (Labsystems) with an integration time of 200 msec or with an Envision reader (Perkin Elmer).
The increase of MMP1 expression by SFs upon treatment with cytokines relevant in the field of RA (TNF-α, IL1β and OSM) or a combination thereof is shown in FIG. 2 as white bars. For this experiment, SFs are seeded in 96 well plates, 3,000 cells/well. 24 h later, the medium is changed to M199 medium supplemented with 1% FBS. One day after the medium change, cytokines or combinations thereof are added to the cultures, each cytokine being added to a final concentration of 25 ng/mL. 72 h after cytokine addition, the supernatant is collected and processed in the MMP1 ELISA as described in the protocol given above. In parallel with this experiment, SFs are triggered, using the same protocol, with the supernatant of THP1 cells (2-fold diluted in M199+1% FBS) treated with the same cytokines or combinations of cytokines for 48 h in M199 medium+1% FBS. The induction of the MMP1 expression by SFs triggered with the supernatants of TNF-α-treated THP1 cells is stronger (>4.5 fold induction) as compared to the SFs triggered with recombinant TNF-α alone (3-fold induction) and almost equals the 5-fold induction obtained by a mixture of 3 purified cytokines (TNF-α, IL1βb, OSM). […] As the role of TNF-α in the RA pathogenesis is validated (TNF-α-blockers such as Infliximab and Etanercept show some efficacy in the treatment of RA patients) and the THP-1 cells are representative for monocytes/macrophages present in the joint of RA patients, the TNF-α-based trigger mixture prepared by contacting THP-1 cells with TNF-α will contain factors present in the joints of RA patients and subsequently is relevant to RA. This TNF-α-based complex trigger, further referred to as the ‘complex trigger’, will further be used as basis for the ‘MMP assay’.
Dexamethasone is shown to dose-dependently reduce amounts of MMP1 produced by complex trigger activated SFs. […]

MAPKAPK5 = biological target: T1, MAPKAPK5 (Homo sapiens, UniProt Q8IW41); assay: MAPKAP-K5 assay (FlashPlate, 33P-ATP); type: biochemical; conditions: 0.6 μM ATP, 30 minutes at room temperature
T1 construct: 1 mU MAPKAP-K5
T1 sequence (Q8IW41 1-473): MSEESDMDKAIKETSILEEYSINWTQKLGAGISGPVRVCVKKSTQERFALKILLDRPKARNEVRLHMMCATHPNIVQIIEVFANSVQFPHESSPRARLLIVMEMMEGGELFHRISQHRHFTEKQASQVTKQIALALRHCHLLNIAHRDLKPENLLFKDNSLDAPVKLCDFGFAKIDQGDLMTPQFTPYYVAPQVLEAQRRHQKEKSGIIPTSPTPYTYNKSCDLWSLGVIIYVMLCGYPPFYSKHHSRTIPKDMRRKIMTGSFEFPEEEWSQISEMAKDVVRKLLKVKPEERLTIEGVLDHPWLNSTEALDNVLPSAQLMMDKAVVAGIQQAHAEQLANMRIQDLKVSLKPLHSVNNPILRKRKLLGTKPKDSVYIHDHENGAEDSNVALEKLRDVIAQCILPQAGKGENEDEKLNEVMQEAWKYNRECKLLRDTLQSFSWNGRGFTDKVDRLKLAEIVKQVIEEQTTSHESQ
Procedure: 3 μM MAPKAP-K5 peptide substrate

| IC50 (MAPKAPK5) [nM] | SMILES | EC50 (MMP1 expression by SFs) [nM] |
| --- | --- | --- |
| > 1000 | CCOc1cc(-c2cnc(Nc3ccc(N4CCOCC4)cc3)c3nccn23)ccn1 [Compound 107] | > 1000 |
| > 1000 | CN(C)c1cc(-c2cnc(Nc3ccc(N4CCOCC4)cc3)c3nccn23)ccn1 [Compound 111, [5-(2-Dimethylamino-pyridin-4-yl)-imidazo[1,2-a]pyrazin-8-yl]-(4-morpholin-4-yl-phenyl)-amine] | > 1000 |
| > 1000 | CN1CCN(c2ccc(Nc3ncc(-c4ccc(C(=O)NC5CC5)cc4)n4ccnc34)cc2)CC1 [Compound 117] | > 1000 |
| > 1000 | CN1CCN(c2ccc(Nc3ncc(-c4cncc(C(N)=O)c4)n4ccnc34)cc2)CC1 [Compound 121, 5-{8-[4-(4-Methyl-piperazin-1-yl)-phenylamino]-imidazo[1,2-a]pyrazin-5-yl}-nicotinamide] | > 1000 |
| > 1000 | CN1CCN(c2ccc(Nc3ncc(-c4ccc(C(N)=O)c(N(C)C)c4)n4ccnc34)cc2)CC1 [Compound 126, 2-Dimethylamino-4-{8-[4-(4-methyl-piperazin-1-yl)-phenylamino]-imidazo[1,2-a]pyrazin-5-yl}-benzamide] | > 1000 |
| > 1000 | Cc1cnc2c(Nc3ccc(N4CCOCC4)cc3)ncc(-c3ccc(C(N)=O)cc3)n12 [Compound 130, 4-[3-Methyl-8-(4-morpholin-4-ylphenylamino)imidazo[1,2-a]pyrazin-5-yl]benzamide] | > 1000 |
| > 1000 | Cc1cnc2c(Nc3ccc(N4CCOCC4)cc3)ncc(-c3cn[nH]c3)n12 [Compound 131, [3-Methyl-5-(1H-pyrazol-4-yl)imidazo[1,2-a]pyrazin-8-yl]-(4-morpholin-4-yl-phenyl)amine] | > 1000 |
| > 1000 | NC(=O)c1ccc(-c2cnc(Nc3ccc(-n4cncn4)cc3)c3nccn23)cc1 [Compound 134] | 101 to 500 |
| > 1000 | Cc1cnc2c(Nc3ccc(N4CCOCC4)cc3)ncc(-c3cc[nH]c(=O)c3)n12 [Compound 135] | > 1000 |
| > 1000 | CCc1cnc2c(Nc3ccc(N4CCOCC4)cc3)ncc(-c3ccc(C(N)=O)cc3)n12 [Compound 162, 4-[3-Ethyl-8-(4-morpholin-4-ylphenylamino)-imidazo[1,2-a]pyrazin-5-yl]benzamide] | 501 to 1000 |
| > 1000 | NC(=O)c1nc(-c2cnc(Nc3ccc(N4CCOCC4)cc3)c3nccn23)cs1 [Compound 164] | > 1000 |
| > 1000 | NC(=O)c1ccc(-c2cnc(Nc3cccc(N4CCOCC4)c3)c3nccn23)cc1 [Compound 172] | > 1000 |
| > 1000 | Cc1cc(-c2cnc(Nc3ccc(N4CCOCC4)cc3)c3nccn23)cc(=O)[nH]1 [Compound 174, 6-Methyl-4-[8-(4-morpholin-4-ylphenylamino)-imidazo[1,2-a]pyrazin-5-yl]-1H-pyridin-2-one] | 101 to 500 |

Second part, the molecule before the results:

| SMILES | IC50 (MAPKAPK5) [nM] | EC50 (MMP1 expression by SFs) [nM] |
| --- | --- | --- |
| NC(=O)c1ccc(-c2cnc(Nc3ccc(C(=O)NCc4cccnc4)cc3)c3nccn23)cc1 [Compound 104] | > 1000 | > 1000 |
| CCN(CC)CCNC(=O)c1ccc(Nc2ncc(-c3nc[nH]n3)n3ccnc23)cc1 [Compound 105] | > 1000 | > 1000 |
| CCN(CC)CCNC(=O)c1ccc(Nc2ncc(-c3n[nH]c(C)n3)n3ccnc23)cc1 [Compound 106] | > 1000 | > 1000 |
| O=C(NCc1cccnc1)c1ccc(Nc2ncc(-c3cc[nH]c(=O)c3)n3ccnc23)cc1 [Compound 108, 4-[5-(2-Oxo-1,2-dihydropyridin-4-yl)imidazo[1,2-a]pyrazin-8-ylamino]-N-pyridin-3-ylmethyl benzamide] | 501 to 1000 | 101 to 500 |
| CN1CCN(c2ccc(Nc3ncc(-c4ccc(=O)[nH]c4)n4ccnc34)cc2)CC1 [Compound 109] | > 1000 | > 1000 |
| O=C(NCc1ccc(O)cc1)c1ccc(Nc2ncc(-c3cc[nH]c(=O)c3)n3ccnc23)cc1 [Compound 112] | 101 to 500 | 101 to 500 |
| CN1CCN(c2ccc(Nc3ncc(-c4ccc(C(=O)N5CCCC5)cc4)n4ccnc34)cc2)CC1 [Compound 115] | > 1000 | > 1000 |
| CN1CCN(c2ccc(Nc3ncc(-c4ccnc(N)c4)n4ccnc34)cc2)CC1 [Compound 132, [5-(2-Amino-pyridin-4-yl)-imidazo[1,2-a]pyrazin-8-yl]-[4-(4-methyl-piperazin-1-yl)-phenyl]-amine] | > 1000 | > 1000 |
| NC(=O)c1ccc(-c2cnc(Nc3ccc(-n4ccc(C(F)(F)F)n4)cc3)c3nccn23)cc1 [Compound 133] | > 1000 | 101 to 500 |
| NC(=O)c1ccc(-c2cnc(Nc3ccc(OCc4cccnc4)cc3)c3nccn23)cc1F [Compound 147] | > 1000 | 101 to 500 |
| CC(C)Oc1ccc(Nc2ncc(-c3ccc(C(N)=O)c(F)c3)n3ccnc23)cc1 [Compound 148] | > 1000 | 501 to 1000 |
| NC(=O)c1ccc(-c2cnc(Nc3ccc(-n4cc(-c5ccccn5)nn4)cc3)c3nccn23)cc1 [Compound 154, 4-{8-[4-(4-Pyridin-2-yl-[1,2,3]triazol-1-yl)-phenylamino]-imidazo[1,2-a]pyrazin-5-yl}-benzamide] | > 1000 | 1 to 100 |
| CN1CCN(c2ccc(Nc3ncc(-c4cn[nH]c4C(F)(F)F)n4ccnc34)cc2)CC1 [Compound 157, [4-(4-Methyl-piperazin-1-yl)-phenyl]-[5-(3-trifluoromethyl-1H-pyrazol-4-yl)-imidazo[1,2-a]pyrazin-8-yl]-amine] | > 1000 | > 1000 |
| O=c1cc(-c2cnc(Nc3ccc(N4CCOCC4)cc3)c3nccn23)cc(C(F)(F)F)[nH]1 [Compound 161, 6-Trifluoromethyl-4-[8-(4-morpholin-4-ylphenylamino)imidazo[1,2-a]pyrazin-5-yl]-1H-pyridin-2-one] | > 1000 | > 1000 |
| Cn1nnc(-c2ccc(Nc3ncc(-c4ccc(C(N)=O)cc4)n4ccnc34)cc2)n1 [Compound 170] | > 1000 | 101 to 500 |
| NC(=O)c1cc(Nc2ncc(-c3cc(F)c(C(N)=O)c(F)c3)n3ccnc23)ccc1N1CCOCC1 [Compound 175, 4-[8-(3-Carbamoyl-4-morpholin-4-yl-phenylamino)-imidazo[1,2-a]pyrazin-5-yl]-2,6-difluoro-benzamide] | 101 to 500 | 501 to 1000 |

— patent US8178530B2, “Imidazolopyrazine compounds useful for the treatment of degenerative and inflammatory diseases” (Janssen Pharmaceutica NV, priority 2006, dated 2012)
